From publication PMC8409973, “Synthesis, antiproliferative and antitrypanosomal activities, and DNA binding of novel 6-amidino-2-arylbenzothiazoles” (Journal of Enzyme Inhibition and Medicinal Chemistry, 2021)
Structures can show the parent of a compound that is named as a salt.

Tests used:
[1] = system: SW620 (colorectal adenocarcinoma, metastatic); test: Proliferation assay (MTT, 72 h) on SW620; assay type: cell-based; conditions: Homo sapiens, SW-620, SW620, 72 h
Protocol: (§1) Human cell lines SW620 (colorectal adenocarcinoma, metastatic), MCF-7 (human breast adenocarcinoma), CFPAC-1 (pancreatic adenocarcinoma), HeLa (cervical carcinoma), and HFF-1 (human foreskin fibroblasts) were obtained from the American Type Culture Collection (ATCC). Cells were cultured in a humidified atmosphere at 37 °C with 5% CO2. As a growth medium, Dulbecco’s modified Eagle medium (DMEM) was used with the addition of foetal bovine serum (10%), L-glutamine (2 mM), and antibiotics: streptomycin ([…]) and penicillin (100 U/ml).
(§2) Cells were seeded onto 96-well microtiter plates at a seeding density of 3000 cells/well for carcinoma cell lines, and 5000 cells/well for normal human fibroblasts. The next day, cells were treated with test agents at five different concentrations (0.01–100 µM) and further incubated for 72 h. […] 5-Fluorouracil (5-FU, 0.384 M fluorouracilum, Pliva 500 mg/10 ml) dissolved in physiological solution was used as a positive control. Following 72 h incubation, the MTT assay was performed and measured absorbances were transformed into a percentage of cell growth as described previously. Results were obtained from three independent experiments. IC50 values were calculated using linear regression analysis (FORECAST option taking into account the concentration range of two experimental points above and below IC50).

[2] = system: Bloodstream form T. b. brucei (strain 221); test: Antitrypanosomal screening (resazurin); assay type: cell-based; conditions: Trypanosoma brucei; for IC90: concentration that inhibited growth by 90%, mean ± SEM; for IC50: mean of triplicate ± SEM
Protocol: Resazurin (20 μl at 0.125 mg ml^−1) was added after 48 h, the plates were incubated for a further 16 h, and then read in a Spectramax plate reader, and data analysed using GraphPad Prism. Each drug was tested in triplicate.

[3] = system: MCF-7 (human breast adenocarcinoma); test: Proliferation assay (MTT, 72 h) on MCF-7; assay type: cell-based; conditions: MCF7, MCF-7, 72 h
Protocol: as §1, §2

[4] = system: L6 cells (a rat myoblast line); test: L6 cell proliferation (cytotoxicity, resazurin); assay type: cell-based; conditions: for IC50: 144 h, rat myoblast L6, 6 days; for SI IC50 (L6/Tb): SI = [IC50 L6 cells]/[IC50 T. brucei]
[5] = system: HFF-1 (human foreskin fibroblasts); test: Proliferation assay (MTT, 72 h) on normal fibroblasts HFF-1; assay type: cell-based; conditions: HFF-1 normal fibroblasts
Protocol: as §1, §2

[6] = system: HeLa (cervical carcinoma); test: Proliferation assay (MTT, 72 h) on HeLa; assay type: cell-based; conditions: Homo sapiens
Protocol: as §1, §2

[7] = system: CFPAC-1 (pancreatic adenocarcinoma); test: Proliferation assay (MTT, 72 h) on CFPAC-1; assay type: cell-based; conditions: Homo sapiens, CFPAC-1, 72 h
Protocol: as §1, §2

SMILES	melting point	IC50 [1]	IC90 [2]	IC50 [2]	IC50 [3]	IC50 [4]	IC50 [5]	IC50 [6]	IC50 [7]	SI IC50 (L6/Tb) [4]
N=C(N)c1ccc2nc(-c3ccc(OCc4cn(-c5ccccc5)nn4)cc3)sc2c1 (as salt: methanesulfonate) [10a]	272 to 275 °C									
N=C(N)c1ccc2nc(-c3ccc(OCc4cn(-c5ccc(Cl)cc5)nn4)cc3)sc2c1 (as salt: methanesulfonate) [10b]	276 to 279 °C									
COc1ccc(-n2cc(COc3ccc(-c4nc5ccc(C(=N)N)cc5s4)cc3)nn2)cc1 (as salt: methanesulfonate) [10c]	265 to 270 °C									
N=C(N)c1ccc2nc(-c3ccc(OCc4cn(Cc5ccccc5)nn4)cc3)sc2c1 (as salt: methanesulfonate) [10d]	253 to 257 °C									
N=C(N)c1ccc2nc(-c3cn(-c4ccccc4)nn3)sc2c1 (as salt: methanesulfonate) [13a, 6-Amidinium-2-(1-phenyl-1H-1,2,3-triazole-4-yl)benzothiazole methanesulfonate]	289 to 293 °C									
N=C(N)c1ccc2nc(-c3cn(-c4ccc(Cl)cc4)nn3)sc2c1 (as salt: methanesulfonate) [13b, 6-Amidinium-2-[1-(4-chlorophenyl)-1H-1,2,3-triazole-4-yl]benzothiazole methanesulfonate]	> 300 °C									
COc1ccc(-n2cc(-c3nc4ccc(C(=N)N)cc4s3)nn2)cc1 (as salt: methanesulfonate) [13c, 6-Amidinium-2-[1-(4-methoxyphenyl)-1H-1,2,3-triazole-4-yl]benzothiazole methanesulfonate]	> 300 °C									
N=C(N)c1ccc2nc(-c3cn(Cc4ccccc4)nn3)sc2c1 (as salt: methanesulfonate) [13d, 6-Amidinium-2-(1-benzyl-1H-1,2,3-triazole-4-yl)benzothiazole methanesulfonate]	262 to 267 °C									
N=C(N)c1ccc2nc(-c3ccc(OCc4cn(-c5ccccc5)nn4)cc3)sc2c1 [10a]		2.89 ± 0.03 µM	1.45 ± 0.11 µM	1.17 ± 0.1 µM	3.39 ± 1.17 µM	< 2 µM	0.17 ± 0.04 µM	2.89 ± 0.11 µM	3.34 ± 0.19 µM	
COc1ccc(-n2cc(COc3ccc(-c4nc5ccc(C(=N)N)cc5s4)cc3)nn2)cc1 [10c]		3.86 ± 0.29 µM	1.26 ± 0.02 µM	1 ± 0.07 µM	3.66 ± 1.49 µM	< 2 µM	0.31 ± 0.08 µM	2.87 ± 1.24 µM	3.45 ± 0.29 µM	
N=C(N)c1ccc2nc(-c3ccc(OCc4cn(Cc5ccccc5)nn4)cc3)sc2c1 [10d]		1.18 ± 0.18 µM			3.02 ± 0.98 µM		0.76 ± 0.18 µM	1.77 ± 0.45 µM	5.15 ± 0.23 µM	
COc1ccc(-n2cc(COc3nc4ccc(C5=NCCN5)cc4s3)nn2)cc1.CS(=O)(=O)O [11c, 6-(4,5-Dihydro-1H-imidazol-3-ium-2-yl)-2-{[1-(4-methoxyphenyl)-1H-1,2,3-triazol-4-yl]methoxy}benzothiazole methanesulfonate]	253 to 257 °C	0.5 ± 0.16 µM	0.23 ± 0.05 µM	0.19 ± 0.04 µM	0.86 ± 0.97 µM	< 2 µM	0.24 ± 0.13 µM	2.53 ± 0.01 µM	2.06 ± 0.7 µM	
CS(=O)(=O)O.c1ccc(Cn2cc(COc3nc4ccc(C5=NCCN5)cc4s3)nn2)cc1 [11d, 6-(4,5-Dihydro-1H-imidazol-3-ium-2-yl)-2[(1-benzyl-1H-1,2,3-triazol-4-yl)methoxy]benzothiazole methanesulfonate]	227 to 232 °C	1.81 ± 0.55 µM	1.3 ± 0.02 µM	1.09 ± 0.02 µM	2.21 ± 1.17 µM	< 0.2 µM	0.18 ± 0.02 µM	1.4 ± 0.75 µM	1.21 ± 0.74 µM	
CS(=O)(=O)O.c1ccc(-n2cc(COc3nc4ccc(C5=NCCCN5)cc4s3)nn2)cc1 [12a, 6-(3,4,5,6-Tetrahydropyrimidin-1-ium-2-yl)-2-[(1-phenyl-1H-1,2,3-triazol-4-yl)methoxy] benzothiazole methanesulfonate]	249 to 254 °C	4.17 ± 0.28 µM			3.98 ± 0.04 µM		0.44 ± 0.03 µM	2.95 ± 0.38 µM	3.98 ± 0.29 µM	
COc1ccc(-n2cc(COc3nc4ccc(C5=NCCCN5)cc4s3)nn2)cc1.CS(=O)(=O)O [12c, 6-(3,4,5,6-Tetrahydropyrimidin-1-ium-2-yl)-2-{[1-(4-methoxyphenyl)-1H-1,2,3-triazol-4-yl]methoxy}benzothiazole methanesulfonate]	259 to 264 °C	5.22 ± 1.24 µM	1.18 ± 0.02 µM	0.9 ± 0.05 µM	3.46 ± 0.45 µM	2.92 ± 0.26 µM	0.46 ± 0.27 µM	2.64 ± 0.46 µM	3.31 ± 0.6 µM	3.2
CS(=O)(=O)O.c1ccc(Cn2cc(COc3nc4ccc(C5=NCCCN5)cc4s3)nn2)cc1 [12d, 6-(3,4,5,6-Tetrahydropyrimidin-1-ium-2-yl)-2-[(1-benzyl-1H-1,2,3-triazol-4-yl)methoxy]benzothiazole methanesulfonate]	197 to 199 °C	7.94 ± 2.58 µM			6.01 ± 0.53 µM		1.74 ± 0.29 µM	8.6 ± 0.85 µM	23.4 ± 0.29 µM	
N=C(N)c1ccc2nc(-c3cn(-c4ccccc4)nn3)sc2c1 [13a, 6-Amidinium-2-(1-phenyl-1H-1,2,3-triazole-4-yl)benzothiazole methanesulfonate]		24.2 ± 4.31 µM	2.52 ± 0.34 µM	2.02 ± 0.1 µM	25.6 ± 3.15 µM	7.97 ± 0.96 µM	2.07 ± 0.13 µM	7.77 ± 0.05 µM	26.6 ± 4.69 µM	3.9
N=C(N)c1ccc2nc(-c3cn(-c4ccc(Cl)cc4)nn3)sc2c1 [13b, 6-Amidinium-2-[1-(4-chlorophenyl)-1H-1,2,3-triazole-4-yl]benzothiazole methanesulfonate]		3.55 ± 0.85 µM	1.02 ± 0.02 µM	0.67 ± 0.07 µM	3.32 ± 0.01 µM	2.69 ± 0.42 µM	0.85 ± 0.05 µM	2.74 ± 0.21 µM	3.17 ± 0.11 µM	4.0
COc1ccc(-n2cc(-c3nc4ccc(C(=N)N)cc4s3)nn2)cc1 [13c, 6-Amidinium-2-[1-(4-methoxyphenyl)-1H-1,2,3-triazole-4-yl]benzothiazole methanesulfonate]		5.39 ± 0.41 µM			4.5 ± 0.43 µM		2.99 ± 1.17 µM	3.64 ± 1.44 µM	5.23 ± 0.87 µM	
N=C(N)c1ccc2nc(-c3cn(Cc4ccccc4)nn3)sc2c1 [13d, 6-Amidinium-2-(1-benzyl-1H-1,2,3-triazole-4-yl)benzothiazole methanesulfonate]		9.48 ± 0.29 µM			22.6 ± 0.91 µM		4.04 ± 1.35 µM	14.9 ± 1.54 µM	25.9 ± 3.71 µM	
CS(=O)(=O)O.c1ccc(Cn2cc(-c3nc4ccc(C5=NCCN5)cc4s3)nn2)cc1 [14d, 6-(4,5-Dihydro-1H-imidazol-3-ium-2-yl)-2-(1-benzyl-1H-1,2,3-triazole-4-yl)benzothiazole methanesulfonate]	236 to 240 °C	0.85 ± 0.61 µM	8.66 ± 0.2 µM	3.68 ± 0.22 µM	1.76 ± 1.17 µM	6.64 ± 0.53 µM	0.11 ± 0.01 µM	0.82 ± 0.01 µM	8.71 ± 3.74 µM	1.8
CS(=O)(=O)O.c1ccc(-n2cc(-c3nc4ccc(C5=NCCCN5)cc4s3)nn2)cc1 [15a, 6-(3,4,5,6-Tetrahydropyrimidin-1-ium-2-yl)-2-(1-phenyl-1H-1,2,3-triazole-4-yl)benzothiazole methanesulfonate]	269 to 274 °C	4.15 ± 1.58 µM			8.31 ± 0.12 µM		0.53 ± 0.1 µM	7.62 ± 0.84 µM	37.6 ± 4.58 µM	
COc1ccc(-n2cc(-c3nc4ccc(C5=NCCCN5)cc4s3)nn2)cc1.CS(=O)(=O)O [15c, 6-(3,4,5,6-Tetrahydropyrimidin-1-ium-2-yl)-2-[1-(4-methoxyphenyl)-1H-1,2,3-triazole-4-yl]benzothiazole methanesulfonate]	261 to 265 °C	4.07 ± 1.06 µM			4.28 ± 0.06 µM		1.33 ± 0.17 µM	4.3 ± 0.41 µM	4.74 ± 0.14 µM	
CS(=O)(=O)O.c1ccc(Cn2cc(-c3nc4ccc(C5=NCCCN5)cc4s3)nn2)cc1 [15d, 6-(3,4,5,6-Tetrahydropyrimidin-1-ium-2-yl)-2-(1-benzyl-1H-1,2,3-triazole-4-yl)benzothiazole methanesulfonate]	170 to 174 °C	31.9 ± 8.38 µM			40.6 ± 10.6 µM		18.9 ± 0.19 µM	31 ± 4.5 µM	49.9 ± 12.5 µM	
